# From US20150307938A1, “METHOD TO IDENTIFY A NOVEL CLASS OF IMMUNOLOGIC ADJUVANTS” (Lancell, L.L.C., priority 2011, published 2015)
# Tested on: skin
# Test: Affymetrix microarray of skin, DBP-4 hr and analogs vs. untreated; gene selection by log-2 fold change, Wilcoxon, Kendall tau (Tables 8, 9)
# Type: in vivo, mouse
# Conditions: mouse, in vivo
compound,measurement,value
"CCCCOC(=O)c1ccccc1C(=O)OCCCC [DBP, dibutylphthalate]",Nrap NM_198059_at ≧2-Fold change,No
same,Nusap1 NM_133851_at ≧2-Fold change,No
same,Ogfrl1 NM_001081079_at ≧2-Fold change,No
same,Olr1 NM_138648_at ≧2-Fold change,No
same,Otud7a (NM_130880_at) ≧2-Fold change,Yes
same,Oxr1 NM_001130163_at ≧2-Fold change,No
same,Oxr1 NM_001130164_at ≧2-Fold change,No
same,Oxr1 NM_001130165_at ≧2-Fold change,No
same,Oxr1 NM_001130166_at ≧2-Fold change,No
same,Pde4b (NM_019840_at) ≧2-Fold change,Yes
same,Pdk4 (NM_013743_at) ≧2-Fold change,Yes
same,Pgam2 NM_018870_at ≧2-Fold change,No
same,Pigyl NM_001082532_at ≧2-Fold change,No
same,Plaur (NM_011113_at) ≧2-Fold change,Yes
same,Plek (NM_019549_at) ≧2-Fold change,Yes
same,Plscr1 (NM_011636_at) ≧2-Fold change,Yes
same,Pmaip1 (NM_021451_at) ≧2-Fold change,Yes
same,Pparg NM_001127330_at ≧2-Fold change,No
same,Ppih NM_001110129_at ≧2-Fold change,No
same,Prg4 NM_021400_at ≧2-Fold change,No
same,Prss22 (NM_133731_at) ≧2-Fold change,Yes
same,Ptges (NM_022415_at) ≧2-Fold change,Yes
same,Pyy (NM_145435_at) ≧2-Fold change,Yes
same,Rab20 (NM_011227_at) ≧2-Fold change,Yes
same,Ramp3 (NM_019511_at) ≧2-Fold change,Yes
same,Retnla NM_020509_at ≧2-Fold change,No
same,Rffl NM_001007465_at ≧2-Fold change,No
same,Rgs1 (NM_015811_at) ≧2-Fold change,Yes
same,Rn18s NR_003278_at ≧2-Fold change,No
same,Rnf19b (NM_029219_at) ≧2-Fold change,Yes
same,Rpl3l NM_025425_at ≧2-Fold change,No
same,Saa3 (NM_011315_at) ≧2-Fold change,Yes
same,Slc5a1 (NM_019810_at) ≧2-Fold change,Yes
same,Slc7a5 (NM_011404_at) ≧2-Fold change,Yes
same,Slc10a6 (NM_029415_at) ≧2-Fold change,Yes
same,Slc15a3 (NM_023044_at) ≧2-Fold change,Yes
same,Slc25a25 (NM_146118_at) ≧2-Fold change,Yes
same,Slc34a2 (NM_011402_at) ≧2-Fold change,Yes
same,Slc39a8 (NM_026228_at) ≧2-Fold change,Yes
same,Slc39a14 NM_001135151_at ≧2-Fold change,No
same,Slfn2 (NM_011408_at) ≧2-Fold change,Yes
same,Slfn4 (NM_011410_at) ≧2-Fold change,Yes
same,Sln NM_025540_at ≧2-Fold change,No
same,Slpi (NM_011414_at) ≧2-Fold change,Yes
same,Smox (NM_145533_at) ≧2-Fold change,Yes
same,Smpx NM_025357_at ≧2-Fold change,No
same,Stfa3 (NM_025288_at) ≧2-Fold change,Yes
same,Timp1 (NM_011593_at) ≧2-Fold change,Yes
same,Tlr2 (NM_011905_at) ≧2-Fold change,Yes
same,Tnf (NM_013693_at) ≧2-Fold change,Yes
same,Tnfrsf9 NM_001077508_at ≧2-Fold change,No
same,Tnfrsf9 NM_001077509_at ≧2-Fold change,No
same,Tnfrsf12a (NM_013749_at) ≧2-Fold change,Yes
same,Tnni1 NM_021467_at ≧2-Fold change,No
same,Trdn NM_029726_at ≧2-Fold change,No
same,Trf NM_133977_at ≧2-Fold change,No
same,Trp63 NM_001127259_at ≧2-Fold change,No
same,Trp63 NM_001127260_at ≧2-Fold change,No
same,Trp63 NM_001127262_at ≧2-Fold change,No
same,Trp63 NM_001127264_at ≧2-Fold change,No
same,Tslp (NM_021367_at) ≧2-Fold change,Yes
same,Tslp (NR_033206_at) ≧2-Fold change,Yes
same,Ttn NM_028004_at ≧2-Fold change,No
same,Tubb6 (NM_026473_at) ≧2-Fold change,Yes
same,Uap1 (NM_133806_at) ≧2-Fold change,Yes
same,Wbp1 NM_001083922_at ≧2-Fold change,No
same,Wbp1 NM_001083923_at ≧2-Fold change,No
same,Wfdc2 NM_026323_at ≧2-Fold change,No
same,Zc3h12a (NM_153159_at) ≧2-Fold change,Yes
same,Zfp36 (NM_011756_at) ≧2-Fold change,Yes
same,Zfp68 NM_001044747_at ≧2-Fold change,No
same,Zfp187 NM_001013786_at ≧2-Fold change,No
same,Zfp518b NM_001081144_at ≧2-Fold change,No
same,Zfp593 (NM_024215_at) ≧2-Fold change,Yes
same,Zfp943 NM_001025373_at ≧2-Fold change,No
same,≧2-Fold change,No and Yes
same,≧2-Fold change: 1810046J19Rik,No
same,≧2-Fold change: 4933434E20Rik,No
same,≧2-Fold change: Abhd6,No
same,≧2-Fold change: Acad8,No
same,≧2-Fold change: Ak2,No
same,≧2-Fold change: Akr1e1,No
same,≧2-Fold change: Avpr1a,No
same,≧2-Fold change: B4galt1,No
same,≧2-Fold change: Bphl,No
same,≧2-Fold change: Cdkl2,No
same,≧2-Fold change: Cep70,No
same,≧2-Fold change: Cirh1a,No
same,≧2-Fold change: Clec14a,No
same,≧2-Fold change: Commd4,No
same,≧2-Fold change: Cr1l,No
same,≧2-Fold change: Cyth1,No
same,≧2-Fold change: D16Ertd472e,No
same,≧2-Fold change: Dcxr,No
same,≧2-Fold change: Dda1,No
same,≧2-Fold change: Diablo,No
same,≧2-Fold change: Dmap1,No
same,≧2-Fold change: Dnajc4,No
same,≧2-Fold change: Eid1,No
same,≧2-Fold change: Eif6,No
same,≧2-Fold change: Erlec1,No
same,≧2-Fold change: Fam134b,No
same,≧2-Fold change: Fbxo25,No
same,≧2-Fold change: Fgf13,No
same,≧2-Fold change: Flt1,No
same,≧2-Fold change: Fmo5,No
same,≧2-Fold change: Ftsj3,No
same,≧2-Fold change: Gcnt2,No
same,≧2-Fold change: Gmcl1,No
same,≧2-Fold change: Gpn3,No
same,≧2-Fold change: Gstz1,No
same,≧2-Fold change: Gtf2h2,No
same,≧2-Fold change: Gtf3a,No
same,≧2-Fold change: Hsdl2,No
same,≧2-Fold change: Icos,No
same,≧2-Fold change: Ifngr1,No
same,≧2-Fold change: Inpp5d,No
same,≧2-Fold change: Itgax,No
same,≧2-Fold change: Itk,No
same,≧2-Fold change: Krt17,No
same,≧2-Fold change: Map3k14,No
same,≧2-Fold change: Mdp1,No
same,≧2-Fold change: Meis1,No
same,≧2-Fold change: Mkrn3,No
same,≧2-Fold change: Mtcp1,No
same,≧2-Fold change: Mum1,No
same,≧2-Fold change: Myd88,No
same,≧2-Fold change: Nagk,No
same,≧2-Fold change: Ndufaf3,No
same,≧2-Fold change: Nek3,No
same,≧2-Fold change: Nfkb2,No
same,≧2-Fold change: Nicn1,No
same,≧2-Fold change: Nme3,No
same,≧2-Fold change: Ntpcr,No
same,≧2-Fold change: Orc3,No
same,≧2-Fold change: Padi1,No
same,≧2-Fold change: Panx1,No
same,≧2-Fold change: Pfdn2,No
same,≧2-Fold change: Phtf1,No
same,≧2-Fold change: Pigp,No
same,≧2-Fold change: Pkp4,No
same,≧2-Fold change: Plk3,No
same,≧2-Fold change: Polr2g,No
same,≧2-Fold change: Pparg,No
same,≧2-Fold change: Ppp1r7,No
same,≧2-Fold change: Prokr1,No
same,≧2-Fold change: Ptpn1,No
same,≧2-Fold change: Rabgef1,No
same,≧2-Fold change: Rai12,No
same,≧2-Fold change: Rbbp6,No
same,≧2-Fold change: Rpl7l1,No
same,≧2-Fold change: Sema4d,No
same,≧2-Fold change: Siae,No
same,≧2-Fold change: Sirt1,No
same,≧2-Fold change: Slc9a3r1,No
same,≧2-Fold change: Slc30a4,No
same,≧2-Fold change: Slc35a1,No
same,≧2-Fold change: Smarcb1,No
same,≧2-Fold change: Srsf6,No
same,≧2-Fold change: Stx17,No
same,≧2-Fold change: Tmed1,No
same,≧2-Fold change: Tmem208,No
same,≧2-Fold change: Tnfrsf1a,No
same,≧2-Fold change: Tnfrsf9,No
same,≧2-Fold change: Trappc2l,No
same,≧2-Fold change: Tril,No
same,≧2-Fold change: Trim12a,No
same,≧2-Fold change: Trip4,No
same,≧2-Fold change: Trp63,No
same,≧2-Fold change: Trpv2,No
same,≧2-Fold change: Tsn,No
same,≧2-Fold change: Ufc1,No
same,≧2-Fold change: Ulk2,No
same,≧2-Fold change: Wbp1,No
same,≧2-Fold change: Zfp68,No
same,≧2-Fold change: Zfp90,No
same,≧2-Fold change: Zkscan3,No
same,≧2-Fold change: Zkscan6,No
